Marks after values point to notes of the source that are not given here.
Columns and labels:
[1] = Lifetimes (half-life) of the activated merocyanine surfactants in solvents; type: physicochemical; conditions: error limits 10-20%
Description: Lifetimes of the activated zwitterionic merocyanine isomers of compounds 4a, 4b, 4c, and 4e in several solvents were determined.
The spiropyran compound 4 was added to a solvent in a 1-cm quartz cuvette and the cuvette was irradiated with ultraviolet light at 365 nm for ˜60 seconds. […] Absorption spectra were recorded from 450 to 650 nm every 5 seconds over a 350-second observation time. The concentrations of the merocyanine were adjusted so that the initial t=0 absorbance at the absorption maximum (λmax) was in the range of 1-1.4. All kinetics experiments were done in triplicate once an appropriate spiropyran/merocyanine surfactant concentration was determined. The absorbances at λmax were normalized to the highest value, and the three data sets averaged to give the normalized absorbances as a function of time. If the normalized absorbance had dropped to at least 0.5 during the 350-s monitoring time, the half-life was taken as the time at which the normalized absorbance had reached 0.5.

[2] = Separate experiment: solubility of palmitic acid in hexanes with switchable surfactant activation; type: physicochemical; conditions: 1 mg/mL surfactant
Description: The second vial was exposed to 365-nm ultraviolet light that activated the surfactant; the solution turned magenta due to the color of the merocyanine.

[3] = in acetone, after 365 nm irradiation
[4] = in cyclohexane, after 365 nm irradiation
[5] = in ethanol, longer than 350 s monitoring, by extrapolation of exponential fit
[6] = in ethyl acetate, after 365 nm irradiation
[7] = in methanol, longer than 350 s monitoring, by extrapolation of exponential fit
[8] = in octanol, longer than 350 s monitoring, by extrapolation of exponential fit
[9] = in toluene, after 365 nm irradiation

Row | Structure (SMILES) | Merocyanine Half-life [1, 3] [s] | Merocyanine Half-life [1, 4] [s] | Merocyanine Half-life [1, 5] [s] | Merocyanine Half-life [1, 6] [s] | Merocyanine Half-life [1, 7] | Merocyanine Half-life [1, 8] [s] | Merocyanine Half-life [1, 9] [s] | reversibility after UV-treated solution placed in the dark ([2]; 53 mg/mL palmitic acid) | palmitic acid dissolved with activated surfactant ([2]; 53 mg/mL palmitic acid charged, 365-nm ultraviolet light) [mg/mL] | dissolution of palmitic acid with ground-state surfactant ([2]; 53 mg/mL palmitic acid charged, kept in the dark)
1 | CCCCCCCCCCCCCCCCCCN1c2ccccc2C(C)(C)C12C=Cc1cc([N+](=O)[O-])ccc1O2 (stereo not shown) [4e, 3′,3′-Dimethyl-6-nitro-1′-octadecylspiro[chromene-2,2′-indoline]] | – | – | – | – | – | – | – | precipitate began to form | 53 | not fully dissolved
2 | C[N+]1=C(/C=C/c2cc([N+](=O)[O-])ccc2[O-])C(C)(C)c2ccccc21 [5a] | 103 | 14 | 1200 | 19 | 4900 s | 610 | 16 | – | – | –

Now from value to compound:

Row | Merocyanine Half-life [1, 3] [s] | Merocyanine Half-life [1, 4] [s] | Merocyanine Half-life [1, 5] [s] | Merocyanine Half-life [1, 6] [s] | Merocyanine Half-life [1, 7] | Merocyanine Half-life [1, 8] [s] | Merocyanine Half-life [1, 9] [s] | reversibility after UV-treated solution placed in the dark ([2]; 53 mg/mL palmitic acid) | palmitic acid dissolved with activated surfactant ([2]; 53 mg/mL palmitic acid charged, 365-nm ultraviolet light) [mg/mL] | dissolution of palmitic acid with ground-state surfactant ([2]; 53 mg/mL palmitic acid charged, kept in the dark) | Structure (SMILES)
3 | 114 | 40 | 1450 | 20 | 11000 s | 830 | 49 | – | – | – | CCCCCCCCCCCCCCCCCC[N+]1=C(/C=C/c2cc([N+](=O)[O-])ccc2[O-])C(C)(C)c2ccccc21 [5e]
4 | 130 | 44 | 1300 | 23 | 23000 s | 610 | 32 | – | – | – | CCCC[N+]1=C(/C=C/c2cc([N+](=O)[O-])ccc2[O-])C(C)(C)c2ccccc21 [5b]
5 | 153 | 40 | 1500 | 20 | >10^4‡ seconds | 610 | 38 | – | – | – | CCCCCCCC[N+]1=C(/C=C/c2cc([N+](=O)[O-])ccc2[O-])C(C)(C)c2ccccc21 [5c]

From patent US20190152993A1, “Reversibly Switchable Surfactants and Methods of Use” (WARNER BABCOCK INSTITUTE FOR GREEN CHEMISTRY, LLC, priority 2016, published 2019)
